The values below come from patent US20210254056A1, “IDENTIFICATION AND TARGETED MODULATION OF GENE SIGNALING NETWORKS” (CAMP4 THERAPEUTICS CORPORATION, priority 2017, published 2021).

Experiment [1] relates to primary human hepatocytes. Kind of experiment: qRT-PCR validation of gene expression in hepatocytes from a second donor. It is filed as cell-based. As to the method: qRT-PCR was performed on samples of primary human hepatocytes from a second donor. […] The 58 liver disease associated genes analyzed were ACADVL, ACAT2, ACSL1, ACSL5, AGPAT2, AGTR1, AHSG, ALAS1, AMACR, ANGPTL2, ARG1, CA12, CA2, CIDEC, COL1A1, CPS1, CPT1A, CPT2, CYP21A2, CYP2C19, CYP3A4, CYP7A1, ECH1, ENO3, ETFDH, FABP1, FABP6, G6PC, GHR, GLA, GYS2, HGD, HMGCR, HMGCS2, HMOX1, HOGA1, HPGD, IFT27, LDHA, LPIN2, MOGAT2, NCF2, PCSK9, POR, RMRP, SLC25A20, SLC2A2, SLC37A4, SLC51B, SLC6A20, SLC6A6, SOAT2, SULT2A1, TAT, TDO2, TMEM135, TNFSF11, and VLDLR as shown in Example 2.

The test system of experiment [2] is primary human hepatocytes. Put plainly: RNA-seq of primary human hepatocytes treated with 39 small molecules (pilot and validation). Particulars: for RNA-seq fold Δ (Log2): primary human hepatocytes; for Expected fold Δ: fold expected from RNA-seq Log2.

Molecules are shown by their SMILES.

For `CCOC(=O)N1c2ccc(C(F)(F)F)cc2[C@@H](N(Cc2cc(C(F)(F)F)cc(C(F)(F)F)c2)C(=O)OC)C[C@H]1CC` [Torcetrapib], the “Fold Δ” value was 2.87 fold in experiment [1] (ACAT2 gene); 0.85 fold in experiment [1] (CYP7A1 gene); 4.02 fold in experiment [1] (HMGCR gene); 5.76 fold in experiment [1] (PCSK9 gene); 1.01 fold in experiment [1] (TNFS11 gene). In addition, the “RNA-seq fold Δ (Log2)” value in experiment [2] (ACAT2 gene) is reported as 1.22 Log2; in experiment [2] (CYP7A1 gene) it was −1.42 Log2; in experiment [2] (HMGCR gene), 1.26 Log2; in experiment [2] (PCSK9 gene), 1.07 Log2; in experiment [2] (TNFS11 gene), 1.09 Log2. In addition, the “Expected fold Δ” value in experiment [2] (ACAT2 gene) is 2.33 fold; in experiment [2] (CYP7A1 gene), 0.37 fold; in experiment [2] (HMGCR gene), 2.39 fold; in experiment [2] (PCSK9 gene), 2.10 fold; in experiment [2] (TNFS11 gene) it was 2.13 fold.
